According to patent US20140329682A1, “METHOD OF CONTROLLING WEED IN A SUGAR CANE FIELD” (SUMITOMO CHEMICAL COMPANY, LIMITED, priority 2011, published 2014):

What was measured:
Amaranthus retroflexus [1] = experiment: Herbicidal activity, spray above weed before planting, insecticide-treated stem cutting (Example 7); format: in vivo; conditions: sprayed above weed, 3 cm stem cutting treated with clothianidin, thiamethoxiam, imidacloprid, dinotefuran, nitenpyram, acetamiprid or thiacloprid planted one week after treatment, four weeks after treatment
Procedure: A soil is packed into a plastic pot, and seeds of Amaranthus retroflexus are seeded thereon. Thereafter, the pot is placed in a greenhouse, and the weed is grown.
A 30 cm to 40 cm stem cutting of sugar cane is placed on a wet soil, and germination is stimulated. The stem cutting from which a bud has grown to about 1 cm is selected, and the length of the stem cutting is adjusted to be 3 cm so that the stem cutting has one node. Clothianidin, thiamethoxiam, imidacloprid, dinotefuran, nitenpyram, acetamiprid or thiacloprid is adhered to the stem cutting.
The pot for a test is placed in a greenhouse.

sugar cane [2] = experiment: Phytotoxicity on sugar cane, soil surface spray, strobilurin-treated stem cutting (Example 8)
Description: (§1) The “phytotoxicity” evaluated herein is the damage characteristic determined to be due to a treated compound, and is clearly discriminated from the damage characteristic caused by a harmful animal or plant disease.
A 30 cm to 40 cm stem cutting of sugar cane is placed on a wet soil, and germination is stimulated. The stem cutting from which a bud has grown to about 1 cm is selected, and the length of the stem cutting is adjusted to be 3 cm so that the stem cutting has one node. Kresoxim-methyl, azoxystrobin, trifloxystrobin, fluoxastrobin, picoxystrobin, pyraclostrobin, dimoxystrobin, pyribencarb, metominostrobin, orysastrobin, enestrobin, pyraoxystrobin or pyrametostrobin is adhered to the stem cutting. A soil is packed into a plastic pot, and seeds of Amaranthus retroflexus are seeded thereon. The stem cutting of sugar cane treated with kresoxim-methyl, azoxystrobin, trifloxystrobin, fluoxastrobin, picoxystrobin, pyraclostrobin, dimoxystrobin, pyribencarb, metominostrobin, orysastrobin, enestrobin, pyraoxystrobin or pyrametostrobin is planted in the soil packed into the pot at a depth of 2 cm. […] Thereafter, the pot for a test is placed in a greenhouse.

Amaranthus retroflexus [3] = experiment: Herbicidal activity, spray from upper side of pot, sugar cane at 4 to 5 leaves (Example 2); format: in vivo; conditions: 125 g (active ingredient)/ha, four weeks after treatment, scale 0 to 100
Procedure: A sugar cane, a foliage of which had grown to about 4 to 5 leaves, was selected, and the length of the stem cutting was adjusted to be 8 cm, 15 cm or 25 cm. The 8 cm or 15 cm stem cutting had one node, and the 25 cm stem cutting had two nodes. A soil was packed into a 32 cm×25 cm×11 cm plastic pot, and seeds of Amaranthus retroflexus were seeded thereon. […] On the date when the stem cutting was planted, and after planting of the stem cutting, a water-diluted liquid of a flumioxazin water dispersible granule (water dispersible granule containing 51% flumioxazin, trade name: Valor SX, manufactured by Valent USA Corporation) (250 ppm) was uniformly sprayed with a sprayer from an upper side of the pot at an amount described in Table 2. Thereafter, the pot for a test was placed in a greenhouse. One week after treatment with flumioxazin, phytotoxicity on sugar cane was determined and, four weeks after treatment with flumioxazin, the herbicidal activity against Amaranthus retroflexus was determined.

sugar cane [4] = experiment: Phytotoxicity on sugar cane, soil surface spray, metalaxyl-treated stem cutting (Example 12)
Description: as §1
(§2) A 30 cm to 40 cm stem cutting of sugar cane is placed on a wet soil, and germination is stimulated. The stem cutting from which a bud has grown to about 1 cm is selected, and the length of the stem cutting is adjusted to be 3 cm so that the stem cutting has one node. Metalaxyl or metalaxyl-M is adhered to the stem cutting. A soil is packed into a plastic pot. Seeds of Amaranthus retroflexus are seeded thereon. The stem cutting of sugar cane treated with metalaxyl or metalaxyl-M is planted in the soil packed into the pot at a depth of 2 cm. […] Thereafter, the pot for a test is placed in a greenhouse.

sugar cane [5] = experiment: Phytotoxicity on sugar cane, soil surface spray on day of planting (Example 1); format: in vivo; conditions: four weeks after treatment, scale 0 to 100
Procedure: The stem cutting from which a bud had grown to about 1 cm was selected, and the length of the stem cutting was adjusted to be 3 cm, 15 cm or 25 cm. The stem cutting of 3 cm or 15 cm had only one node, and the stem cutting of 25 cm had two nodes. A soil was packed into a 32 cm×25 cm×11 cm plastic pot, and seeds of Amaranthus retroflexus were seeded thereon. […] On the date when the stem cutting was planted, and after planting of the stem cutting, a water-diluted liquid of a flumioxazin water dispersible granule (water dispersible granule containing 51% floumioxazin, trade name: Valor SX, manufactured by Valent USA Corporation) (100 ppm or 250 ppm) was uniformly sprayed on the soil surface with a sprayer at an amount described in Table 1. Thereafter, the pot for a test was placed in a greenhouse. Four weeks after treatment with flumioxazin, phytotoxicity on sugar cane and the herbicidal activity against Amaranthus retroflexus were determined.

sugar cane [6] = experiment: Phytotoxicity on sugar cane, soil surface spray, insecticide-treated stem cutting (Example 6)
Description: as §1
as §2, with “Clothianidin, thiamethoxiam, imidacloprid, dinotefuran, nitenpyram, acetamiprid” for “Metalaxyl”, “thiacloprid” for “metalaxyl-M”, “pot, and seeds” for “pot. Seeds”, “clothianidin, thiamethoxiam, imidacloprid, dinotefuran, nitenpyram, acetamiprid” for “metalaxyl”

sugar cane [7] = experiment: Phytotoxicity on sugar cane, soil surface spray after planting (Example 4)
Description: as §1
A 30 cm to 40 cm stem cutting of sugar cane is placed on a wet soil, and germination is stimulated. The stem cutting from which a bud has grown to about 1 cm is selected, and the length of the stem cutting is adjusted to be 3 cm so that the stem cutting has one node. A soil is packed into a plastic pot, and seeds of Amaranthus retroflexus are seeded thereon. The stem cutting of sugar cane is planted in the soil packed in the pot at a depth of 2 cm. […] Thereafter, the pot for a test is placed in a greenhouse.

Amaranthus retroflexus [8] = experiment: Herbicidal activity, soil surface spray after planting (Example 4); format: in vivo; conditions: 3 cm stem cutting, one node, soil surface spray on date of planting, four weeks after treatment
[9] = Example 8, 3 cm stem cutting treated with kresoxim-methyl, azoxystrobin or another listed strobilurin fungicide, soil surface spray, four weeks after treatment
[10] = Example 12, 3 cm stem cutting treated with metalaxyl or metalaxyl-M, soil surface spray, four weeks after treatment
[11] = Example 6, 3 cm stem cutting treated with clothianidin, thiamethoxiam, imidacloprid, dinotefuran, nitenpyram, acetamiprid or thiacloprid, soil surface spray, four weeks after treatment
[12] = Example 4, 3 cm stem cutting, one node, soil surface spray on date of planting, four weeks after treatment

C#CCN1C(=O)COc2cc(F)c(N3C(=O)C4=C(CCCC4)C3=O)cc21 [Flumioxazin, flumioxazin]
herbicidal activity against Amaranthus retroflexus (Amaranthus retroflexus [1]): the controlling effect on a weed can be confirmed
phytotoxicity (sugar cane [2]; [9]): significant phytotoxicity on sugar cane is not observed
Herbicidal activity (Amaranthus retroflexus [3]; stem cutting 8 cm): 100
Herbicidal activity (Amaranthus retroflexus [3]; stem cutting 15 cm): 100
Herbicidal activity (Amaranthus retroflexus [3]; stem cutting 25 cm): 100
phytotoxicity (sugar cane [4]; [10]): significant phytotoxicity on sugar cane is not observed
Phytotoxicity on sugar cane (sugar cane [5]; 50 g (active ingredient)/ha, stem cutting 3 cm (one node)): 0
Phytotoxicity on sugar cane (sugar cane [5]; 50 g (active ingredient)/ha, stem cutting 15 cm (one node)): 5
Phytotoxicity on sugar cane (sugar cane [5]; 50 g (active ingredient)/ha, stem cutting 25 cm (two nodes)): 20
Phytotoxicity on sugar cane (sugar cane [5]; 125 g (active ingredient)/ha, stem cutting 3 cm (one node)): 0
Phytotoxicity on sugar cane (sugar cane [5]; 125 g (active ingredient)/ha, stem cutting 15 cm (one node)): 5
Phytotoxicity on sugar cane (sugar cane [5]; 125 g (active ingredient)/ha, stem cutting 25 cm (two nodes)): 20
phytotoxicity (sugar cane [6]; [11]): significant phytotoxicity on sugar cane is not observed

CC(C)N(C)S(=O)(=O)NC(=O)c1cc(-n2c(=O)cc(C(F)(F)F)n(C)c2=O)c(F)cc1Cl [Saflufenacil, saflufenacil]
phytotoxicity (sugar cane [7]; [12]): significant phytotoxicity on sugar cane is not observed
herbicidal activity against Amaranthus retroflexus (Amaranthus retroflexus [8]): the controlling effect on a weed can be confirmed
herbicidal activity against Amaranthus retroflexus (Amaranthus retroflexus [1]): the controlling effect on a weed can be confirmed
phytotoxicity (sugar cane [2]; [9]): significant phytotoxicity on sugar cane is not observed
phytotoxicity (sugar cane [4]; [10]): significant phytotoxicity on sugar cane is not observed
phytotoxicity (sugar cane [6]; [11]): significant phytotoxicity on sugar cane is not observed

C#CCN1C(=O)COc2cc(F)c(-n3c(=O)n(C)c(=S)n(C)c3=O)cc21 [compound of the formula (I)]
phytotoxicity (sugar cane [7]; in vivo): significant phytotoxicity on sugar cane is not observed
herbicidal activity against Amaranthus retroflexus (Amaranthus retroflexus [8]): the controlling effect on a weed can be confirmed
herbicidal activity against Amaranthus retroflexus (Amaranthus retroflexus [1]): the controlling effect on a weed can be confirmed
phytotoxicity (sugar cane [2]; [9]): significant phytotoxicity on sugar cane is not observed
phytotoxicity (sugar cane [4]; in vivo): significant phytotoxicity on sugar cane is not observed
phytotoxicity (sugar cane [6]; in vivo): significant phytotoxicity on sugar cane is not observed

CC(C)Oc1cc(-n2nc(C(C)(C)C)oc2=O)c(Cl)cc1Cl [oxadiazon]
phytotoxicity (sugar cane [7]; in vivo): significant phytotoxicity on sugar cane is not observed
herbicidal activity against Amaranthus retroflexus (Amaranthus retroflexus [8]): the controlling effect on a weed can be confirmed
herbicidal activity against Amaranthus retroflexus (Amaranthus retroflexus [1]): the controlling effect on a weed can be confirmed
phytotoxicity (sugar cane [2]; in vivo): significant phytotoxicity on sugar cane is not observed
phytotoxicity (sugar cane [4]; in vivo): significant phytotoxicity on sugar cane is not observed
phytotoxicity (sugar cane [6]; in vivo): significant phytotoxicity on sugar cane is not observed

CCOc1cc(Oc2ccc(C(F)(F)F)cc2Cl)ccc1[N+](=O)[O-] [oxyfluorfen]
phytotoxicity (sugar cane [7]; [12]): significant phytotoxicity on sugar cane is not observed
herbicidal activity against Amaranthus retroflexus (Amaranthus retroflexus [8]): the controlling effect on a weed can be confirmed
herbicidal activity against Amaranthus retroflexus (Amaranthus retroflexus [1]): the controlling effect on a weed can be confirmed
phytotoxicity (sugar cane [2]; [9]): significant phytotoxicity on sugar cane is not observed
phytotoxicity (sugar cane [4]; [10]): significant phytotoxicity on sugar cane is not observed
phytotoxicity (sugar cane [6]; [11]): significant phytotoxicity on sugar cane is not observed

Cc1nn(-c2cc(NS(C)(=O)=O)c(Cl)cc2Cl)c(=O)n1C(F)F [sulfentrazone]
phytotoxicity (sugar cane [7]; in vivo): significant phytotoxicity on sugar cane is not observed
herbicidal activity against Amaranthus retroflexus (Amaranthus retroflexus [8]): the controlling effect on a weed can be confirmed
herbicidal activity against Amaranthus retroflexus (Amaranthus retroflexus [1]): the controlling effect on a weed can be confirmed
phytotoxicity (sugar cane [2]; in vivo): significant phytotoxicity on sugar cane is not observed
phytotoxicity (sugar cane [4]; in vivo): significant phytotoxicity on sugar cane is not observed
phytotoxicity (sugar cane [6]; in vivo): significant phytotoxicity on sugar cane is not observed
